target: ER (Homo sapiens (Human), UniProt P03372); test: Western blot analysis (Compounds B1-B278); type: cell-based; conditions: ER degradation by traditional Western blot; DC50 classes
Outline: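 Relative target-protein levels come from densitometry of immunoblots, normalized to GAPDH. Lysates from treated cells were prepared in RIPA buffer (pH 7.6) containing protease inhibitors, and equal protein amounts, checked by BCA, were separated on 10% gels and blotted onto PVDF.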

ER, sequence (P03372 whole entry): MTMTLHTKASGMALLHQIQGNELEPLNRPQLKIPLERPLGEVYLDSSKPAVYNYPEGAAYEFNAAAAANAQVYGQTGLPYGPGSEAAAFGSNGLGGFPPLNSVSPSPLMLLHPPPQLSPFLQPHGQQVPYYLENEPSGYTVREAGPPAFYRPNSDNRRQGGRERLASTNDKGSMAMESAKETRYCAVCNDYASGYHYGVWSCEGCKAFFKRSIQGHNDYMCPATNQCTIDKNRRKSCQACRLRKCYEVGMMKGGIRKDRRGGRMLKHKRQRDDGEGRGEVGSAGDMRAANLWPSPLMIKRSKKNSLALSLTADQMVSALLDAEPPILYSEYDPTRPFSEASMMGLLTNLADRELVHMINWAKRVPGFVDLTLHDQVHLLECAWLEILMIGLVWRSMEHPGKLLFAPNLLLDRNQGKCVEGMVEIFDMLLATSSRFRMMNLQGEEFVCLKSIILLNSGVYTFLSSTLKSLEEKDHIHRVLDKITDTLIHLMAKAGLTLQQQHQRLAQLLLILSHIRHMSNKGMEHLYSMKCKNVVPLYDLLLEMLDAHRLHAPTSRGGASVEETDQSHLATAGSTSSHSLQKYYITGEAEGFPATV

Compound | Traditional Western Degradation Potency
C[C@@H]1Cc2c([nH]c3ccccc23)[C@@H](c2c(F)cc(N3CCC4(CCN(CC(=O)N5Cc6cc7c(cc6C5)C(=O)N(C5CCC(=O)NC5=O)C7=O)C4)CC3)cc2F)N1CC(F)F (stereo partly drawn) [Compound B193, 6-(2-(8-(4-((1R,3R)-2-(2,2-difluoroethyl)-3-methyl-2,3,4,9-tetrahydro-1H-pyrido[3,4-b]indol-1-yl)-3,5-difluorophenyl)-2,8-diazaspiro[4.5]decan-2-yl)acetyl)-2-(2,6-dioxopiperidin-3-yl)-6,7-dihydropyrrolo[3,4-f]isoindole-1,3(2H,5H)-dione] | A (“A”: <10 nM)
C[C@@H]1Cc2c([nH]c3ccccc23)[C@@H](c2c(F)cc(N3CC4(CCN4CC(=O)N4Cc5cc6c(cc5C4)C(=O)N(C4CCC(=O)NC4=O)C6=O)C3)cc2F)N1CC(F)F (stereo partly drawn) [Compound B191, 6-(2-(6-(4-((1R,3R)-2-(2,2-difluoroethyl)-3-methyl-2,3,4,9-tetrahydro-1H-pyrido[3,4-b]indol-1-yl)-3,5-difluorophenyl)-1,6-diazaspiro[3.3]heptan-1-yl)acetyl)-2-(2,6-dioxopiperidin-3-yl)-6,7-dihydropyrrolo[3,4-f]isoindole-1,3(2H,5H)-dione] | C (“C”: >100 nM)
C[C@@H]1Cc2c([nH]c3ccccc23)[C@@H](c2c(F)cc(N3CCC(N4CCC(N5Cc6cc7c(cc6C5)C(=O)N(C5CCC(=O)NC5=O)C7=O)CC4)CC3)cc2F)N1CC(F)F (stereo partly drawn) [Compound B30, 6-(1′-(4-((1R,3R)-2-(2,2-difluoroethyl)-3-methyl-2,3,4,9-tetrahydro-1H-pyrido[3,4-b]indol-1-yl)-3,5-difluorophenyl)-[1,4′-bipiperidin]-4-yl)-2-(2,6-dioxopiperidin-3-yl)-6,7-dihydropyrrolo[3,4-f]isoindole-1,3(2H,5H)-dione] | C (“C”: >100 nM)
C[C@@H]1Cc2c([nH]c3ccccc23)[C@@H](c2c(F)cc(N3CCC(N4CC(CN5Cc6cc7c(cc6C5)C(=O)N(C5CCC(=O)NC5=O)C7=O)C4)CC3)cc2F)N1CC(F)F (stereo partly drawn) [Compound B57, 6-((1-(1-(4-((1R,3R)-2-(2,2-difluoroethyl)-3-methyl-2,3,4,9-tetrahydro-1H-pyrido[3,4-b]indol-1-yl)-3,5-difluorophenyl)piperidin-4-yl)azetidin-3-yl)methyl)-2-(2,6-dioxopiperidin-3-yl)-6,7-dihydropyrrolo[3,4-f]isoindole-1,3(2H,5H)-dione] | B (“B”: 10-100 nM)
COc1cc(C2CCC(C(=O)N3CCC(N4Cc5cc6c(cc5C4)C(=O)N(C4CCC(=O)NC4=O)C6=O)CC3)CC2)cnc1[C@@H]1c2[nH]c3ccccc3c2C[C@@H](C)N1CC(F)F (stereo partly drawn) [Compound B115, 6-(1-(4-(6-((1S,3R)-2-(2,2-difluoroethyl)-3-methyl-2,3,4,9-tetrahydro-1H-pyrido[3,4-b]indol-1-yl)-5-methoxypyridin-3-yl)cyclohexane-1-carbonyl)piperidin-4-yl)-2-(2,6-dioxopiperidin-3-yl)-6,7-dihydropyrrolo[3,4-f]isoindole-1,3(2H,5H)-dione] | C (“C”: >100 nM)
C[C@@H]1Cc2c([nH]c3ccccc23)[C@@H](c2c(F)cc(-c3ccc(C(=O)N4CCC(N5Cc6cc7c(cc6C5)C(=O)N(C5CCC(=O)NC5=O)C7=O)CC4)cc3)cc2F)N1CC(F)F (stereo partly drawn) [Compound B93, 6-(1-(4′-((1R,3R)-2-(2,2-difluoroethyl)-3-methyl-2,3,4,9-tetrahydro-1H-pyrido[3,4-b]indol-1-yl)-3′,5′-difluoro-[1,1′-biphenyl]-4-carbonyl)piperidin-4-yl)-2-(2,6-dioxopiperidin-3-yl)-6,7-dihydropyrrolo[3,4-f]isoindole-1,3(2H,5H)-dione] | A (“A”: <10 nM)
C[C@@H]1Cc2c([nH]c3ccccc23)[C@@H](c2c(F)cc(C3CCN(C[C@H]4CC[C@H](N5Cc6cc7c(cc6C5)C(=O)N(C5CCC(=O)NC5=O)C7=O)CC4)CC3)cc2F)N1CC(F)F (stereo partly drawn) [Compound B96, 6-((1R,4r)-4-((4-(4-((1R,3R)-2-(2,2-difluoroethyl)-3-methyl-2,3,4,9-tetrahydro-1H-pyrido[3,4-b]indol-1-yl)-3,5-difluorophenyl)piperidin-1-yl)methyl)cyclohexyl)-2-(2,6-dioxopiperidin-3-yl)-6,7-dihydropyrrolo[3,4-f]isoindole-1,3(2H,5H)-dione] | C (“C”: >100 nM)
C[C@@H]1Cc2c([nH]c3ccccc23)[C@@H](c2c(F)cc(CN3CCC4(CC3)CC(CN3Cc5cc6c(cc5C3)C(=O)N(C3CCC(=O)NC3=O)C6=O)C4)cc2F)N1CC(F)F (stereo partly drawn) [Compound B98, 6-((7-(4-((1R,3R)-2-(2,2-difluoroethyl)-3-methyl-2,3,4,9-tetrahydro-1H-pyrido[3,4-b]indol-1-yl)-3,5-difluorobenzyl)-7-azaspiro[3.5]nonan-2-yl)methyl)-2-(2,6-dioxopiperidin-3-yl)-6,7-dihydropyrrolo[3,4-f]isoindole-1,3(2H,5H)-dione] | C (“C”: >100 nM)

Other lines, results leading:

Traditional Western Degradation Potency | Compound
B (“B”: 10-100 nM) | C[C@@H]1Cc2c([nH]c3ccccc23)[C@@H](c2c(F)cc(N3CCC4(CC3)CN(C(=O)CN3Cc5cc6c(cc5C3)C(=O)N(C3CCC(=O)NC3=O)C6=O)C4)cc2F)N1CC(F)(F)F (stereo partly drawn) [Compound B200, 6-(2-(7-(3,5-difluoro-4-((1R,3R)-3-methyl-2-(2,2,2-trifluoroethyl)-2,3,4,9-tetrahydro-1H-pyrido[3,4-b]indol-1-yl)phenyl)-2,7-diazaspiro[3.5]nonan-2-yl)-2-oxoethyl)-2-(2,6-dioxopiperidin-3-yl)-6,7-dihydropyrrolo[3,4-f]isoindole-1,3(2H,5H)-dione]
B (“B”: 10-100 nM) | C[C@@H]1Cc2c([nH]c3ccccc23)[C@@H](c2ccc(N3CCC4(CCN(C(=O)CN5Cc6cc7c(cc6C5)C(=O)N(C5CCC(=O)NC5=O)C7=O)CC4)CC3)nc2)N1CC(F)F (stereo partly drawn) [Compound B229, 6-(2-(9-(5-((1R,3R)-2-(2,2-difluoroethyl)-3-methyl-2,3,4,9-tetrahydro-1H-pyrido[3,4-b]indol-1-yl)pyridin-2-yl)-3,9-diazaspiro[5.5]undecan-3-yl)-2-oxoethyl)-2-(2,6-dioxopiperidin-3-yl)-6,7-dihydropyrrolo[3,4-f]isoindole-1,3(2H,5H)-dione]
A (“A”: <10 nM) | C[C@@H]1Cc2c([nH]c3ccccc23)[C@@H](c2c(F)cc(N3CCC(C(=O)N4CCC(N5Cc6cc7c(cc6C5)C(=O)N(C5CCC(=O)NC5=O)C7=O)CC4)CC3)cc2F)N1CC(C)(F)F (stereo partly drawn) [Compound B214, 6-(1-(1-(4-((1R,3R)-2-(2,2-difluoropropyl)-3-methyl-2,3,4,9-tetrahydro-1H-pyrido[3,4-b]indol-1-yl)-3,5-difluorophenyl)piperidine-4-carbonyl)piperidin-4-yl)-2-(2,6-dioxopiperidin-3-yl)-6,7-dihydropyrrolo[3,4-f]isoindole-1,3(2H,5H)-dione]
A (“A”: <10 nM) | C[C@@H]1Cc2c([nH]c3ccccc23)[C@@H](c2c(F)cc(N3CC[C@@H](CN4CCC(C(=O)N5Cc6cc7c(cc6C5)C(=O)N(C5CCC(=O)NC5=O)C7=O)CC4)C3)cc2F)N1CC(F)F (stereo partly drawn) [Compound B197, 6-(1-(((S)-1-(4-((1R,3R)-2-(2,2-difluoroethyl)-3-methyl-2,3,4,9-tetrahydro-1H-pyrido[3,4-b]indol-1-yl)-3,5-difluorophenyl)pyrrolidin-3-yl)methyl)piperidine-4-carbonyl)-2-(2,6-dioxopiperidin-3-yl)-6,7-dihydropyrrolo[3,4-f]isoindole-1,3(2H,5H)-dione]

Source: patent publication US20260007681A1, “INDOLE DERIVATIVES AS ESTROGEN RECEPTOR DEGRADERS” (REGENTS OF THE UNIVERSITY OF MICHIGAN, priority 2022, published 2026)
